Data from patent US20240109881A1, “Heteroaryl Compounds as Ligand Directed Degraders of IRAK4” (Bristol-Myers Squibb Company, priority 2022, published 2024).

Target: T1, IRAK4 (Homo sapiens, UniProt Q9NWZ3)
T1 construct: endogenous in cells; host or cells: THP-1 cells
T1 sequence (Q9NWZ3 1-460): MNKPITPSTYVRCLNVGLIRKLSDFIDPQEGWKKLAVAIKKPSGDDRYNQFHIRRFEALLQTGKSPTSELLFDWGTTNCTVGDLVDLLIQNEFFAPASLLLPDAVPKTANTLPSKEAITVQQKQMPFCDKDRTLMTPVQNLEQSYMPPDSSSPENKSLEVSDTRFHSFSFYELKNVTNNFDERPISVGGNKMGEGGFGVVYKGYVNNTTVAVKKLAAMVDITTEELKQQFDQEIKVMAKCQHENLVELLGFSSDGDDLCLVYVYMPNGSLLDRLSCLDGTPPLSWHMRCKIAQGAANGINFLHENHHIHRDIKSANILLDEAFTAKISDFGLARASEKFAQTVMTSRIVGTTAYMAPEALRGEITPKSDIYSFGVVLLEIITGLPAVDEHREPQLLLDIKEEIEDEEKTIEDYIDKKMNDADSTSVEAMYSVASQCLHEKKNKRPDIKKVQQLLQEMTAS
Assay: LVL THP1 HTRF (THP1 Homogeneous Time Resolved Fluorescence)
Assay type: cell-based
Conditions: THP1 cells, 18 h incubation with compound; for DC50: read-out: LVL THP1 HTRF EC50
Method in brief: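 IRAK4 HTRF read-out (665/615 nm ratio, anti-IRAK4 d2 acceptor and K donor, 18 h dark incubation at room temperature) on lysates of THP-1 cells. Cells were treated 18 h at 37° C. with 20 nL compound in DMSO, in colorless RPMI with 10% FBS, with a duplicate CTG plate.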

Row | Structure (SMILES) | DC50 [µM] | LVL THP1 HTRF YMIN [%]
1 | C[C@H](C#N)Nc1cc(-n2ncc3cc(C#N)cnc32)ncc1-c1ncn([C@H]2CC[C@H](CCN3CCN(c4ccc(C5CCC(=O)NC5=O)cc4)CC3)CC2)n1 (some centres unmarked) [P-224] | 0.06 | –
2 | C[C@H](C#N)Nc1cc(-n2ncc3cncnc32)ncc1-n1cc(C2CCC(CCN3CCN(c4ccc([C@@]5(C)CCC(=O)NC5=O)cc4)CC3)CC2)nn1 (some centres unmarked) [P-225] | – | 3.5
3 | C[C@H](C#N)Nc1cc(-n2ncc3cncnc32)ncc1-n1cc([C@H]2CC[C@H](CCN3CCN(c4ccc([C@@]5(C)CCC(=O)NC5=O)cc4)CC3)CC2)nn1 [P-225] | 0.133 | –
4 | C[C@H](C#N)Nc1cc(-n2ncc3cc(C#N)cnc32)ncc1-n1cc([C@H]2CC[C@](O)(CCN3CCN(c4ccc(C5CCC(=O)NC5=O)cc4)CC3)CC2)nn1 (stereo partly drawn) [P-226, 1-(4-(((R)-1-cyanoethyl)amino)-5-(4-(4-(2-(4-(4-(2,6-dioxopiperidin-3-yl)phenyl)piperazin-1-yl)ethyl)-4-hydroxycyclohexyl)-1H-1,2,3-triazol-1-yl)pyridin-2-yl)-1H-pyrazolo[3,4-b]pyridine-5-carbonitrile] | 0.005 | 2.1
5 | C[C@H](C#N)Nc1cc(-n2ncc3cc(C#N)cnc32)ncc1-n1cc(C2CCC(O)(CCN3CCN(c4ccc(C5CCC(=O)NC5=O)cc4)CC3)CC2)nn1 (some centres unmarked) [P-227] | 0.002 | 3.0
6 | C[C@H](C#N)Nc1cc(-n2ncc3cnc(N)nc32)ncc1-n1cc(C2CCC(CCN3CCN(c4ccc([C@@]5(C)CCC(=O)NC5=O)cc4)CC3)CC2)nn1 (some centres unmarked) [P-228] | – | 3.6
7 | C[C@H](C#N)Nc1cc(-n2ncc3cnc(N)nc32)ncc1-n1cc([C@H]2CC[C@H](CCN3CCN(c4ccc([C@@]5(C)CCC(=O)NC5=O)cc4)CC3)CC2)nn1 [P-228] | 0.009 | –
8 | C[C@H](C#N)Nc1cc(-c2ccc3cc(C#N)cnn23)ncc1-n1cc([C@H]2CC[C@H](CCN3CCN(c4ccc([C@@]5(C)CCC(=O)NC5=O)cc4)CC3)CC2)nn1 [P-230] | 0.007 | –
9 | C[C@H](C#N)Nc1cc(-n2ncc3cnc(N)nc32)ncc1-n1cc(C2CCC(CCN3CCN(c4ccc(C5CCC(=O)NC5=O)cc4)CC3)CC2)nn1 (some centres unmarked) [P-231] | – | 1.37
10 | C[C@H]1CN(c2ccc([C@@]3(C)CCC(=O)NC3=O)cc2)C[C@H](C)N1CCC1CCC(c2cn(-c3cnc(-n4ncc5cc(C#N)cnc54)cc3NC3(C#N)CC3)nn2)CC1 (some centres unmarked) [P-232] | 0.065 | 7.1
11 | C[C@H](C#N)Nc1cc(-n2ncc3cc(C#N)cnc32)ncc1-n1cc(C2CCC(CCN3C[C@@H](C)N(c4ccc([C@@]5(C)CCC(=O)NC5=O)cc4)C[C@@H]3C)CC2)nn1 (some centres unmarked) [P-236] | 0.269 | 23.3

Now from value to compound:

Row | DC50 [µM] | LVL THP1 HTRF YMIN [%] | Structure (SMILES)
12 | – | 2.8 | C[C@H](C#N)Nc1cc(-c2ccc3cc(C#N)cnn23)ncc1-n1cc(C2CCC(CCN3CCN(c4ccc([C@@]5(C)CCC(=O)NC5=O)cc4)CC3)CC2)nn1 (some centres unmarked) [P-230]
13 | 0.001 | – | C[C@H](C#N)Nc1cc(-n2ncc3cnc(N)nc32)ncc1-n1cc([C@H]2CC[C@H](CCN3CCN(c4ccc(C5CCC(=O)NC5=O)cc4)CC3)CC2)nn1 (some centres unmarked) [P-231]
14 | – | 2.8 | C[C@H](C#N)Nc1cc(-n2ncc3cc(C#N)cnc32)ncc1-n1cc(C2CCC(CCN3CCC(c4ccc([C@@]5(C)CCC(=O)NC5=O)cc4)CC3)CC2)nn1 (some centres unmarked) [P-233]
15 | 0.008 | – | C[C@H](C#N)Nc1cc(-n2ncc3cc(C#N)cnc32)ncc1-n1cc([C@H]2CC[C@H](CCN3CCC(c4ccc([C@@]5(C)CCC(=O)NC5=O)cc4)CC3)CC2)nn1 [P-233]
16 | – | 3.1 | C[C@]1(c2ccc(N3CCN(CCC4CCC(c5cn(-c6cnc(-n7ncc8cc(C#N)cnc87)cc6NC6(C#N)CC6)nn5)CC4)CC3)cc2)CCC(=O)NC1=O (some centres unmarked) [P-234]
17 | 0.013 | – | C[C@]1(c2ccc(N3CCN(CC[C@H]4CC[C@H](c5cn(-c6cnc(-n7ncc8cc(C#N)cnc87)cc6NC6(C#N)CC6)nn5)CC4)CC3)cc2)CCC(=O)NC1=O [P-234]
18 | 0.025 | 1.1 | C[C@H](C#N)Nc1cc(-n2ncc3cc(C#N)cnc32)ncc1-n1cc(C2CCC(CCN3[C@@H](C)CN(c4ccc([C@@]5(C)CCC(=O)NC5=O)cc4)C[C@@H]3C)CC2)nn1 (some centres unmarked) [P-238]
